Reference: publication PMC11236204 (PLOS Pathogens, 2024)
Values joined by “and” are separate entries in the source; they are usually repeats but may differ in a detail not shown here. Identical values can stand only once. Like-named read-outs stand apart in the source and are kept apart here. Peptide text beside a SMILES is read from it. * marks the point of attachment. X1 = CCCCCCCCCCCCCCCC(=O)OCC(C*)OC(=O)CCCCCCCCCCCCCCC; Palmitoyl = CCCCCCCCCCCCCCCC(=O)*

Legend:
[1] = test system: RVFV MP-12; type: cell-based, Rift Valley fever virus; settings: for RVFV RNA after lipopeptide pretreatment: 10μg/mL for 4h
[2] = test system: Ifit2, Cxcl10, Tnfa, Cxcl1 RNA; type: cell-based, rat
[3] = test system: La Crosse virus (LACV); type: cell-based
[4] = test system: VSV-RVFV (recombinant VSV expressing RVFV glycoproteins Gn and Gc); type: cell-based, vesicular stomatitis virus / RVFV ZH501 glycoproteins
[5] = test system: VSV-GFP; type: cell-based, vesicular stomatitis virus
[6] = test system: RVFV MP-12; type: cell-based, Rift Valley fever virus; parameters: relative RVFV infection in neurons treated with TLR2 ligands, Rep 1 / relative RVFV infection in neurons treated with TLR2 ligands, Rep 2: unit not given here
[7] = test system: rat cortical neurons
[8] = test system: RVFV-DiD; type: cell-based, Rift Valley fever virus; settings: 1h
[9] = test system: RVFV MP-12; type: cell-based, Rift Valley fever virus; settings: 24h
[10] = test system: RVFV MP-12; type: cell-based, Rift Valley fever virus
[11] = test system: RVFV MP-12; type: cell-based, Rift Valley fever virus; settings: 10μg/mL
[12] = test system: RVFV MP-12
[13] = test system: RVFV MP-12; type: cell-based, Rift Valley fever virus; settings: 10μg/mL for 4h; 15h
[14] = test system: RVFV ZH501; parameters: species or system mouse (C57BL/6); settings: mouse, in vivo
[15] = test system: VSV-RVFV (recombinant VSV expressing RVFV glycoproteins Gn and Gc); type: cell-based, vesicular stomatitis virus / RVFV ZH501 glycoproteins; settings: 14h
[16] = test system: RVFV MP-12; type: cell-based, Rift Valley fever virus; remark: listed apart in the source
[17] = test system: VSV-GFP; settings: 2 h
[18] = test system: RVFV MP-12; type: cell-based, Rift Valley fever virus; remark: listed apart in the source
[19] = test system: RVFV MP-12; type: cell-based, Rift Valley fever virus; settings: 10μg/mL; remark: listed apart in the source
[20] = test system: RVFV ZH501; settings: mouse, in vivo
[21] = test system: RVFV MP-12; type: cell-based, Rift Valley fever virus; remark: listed apart in the source
[22] = test system: RVFV ZH501; parameters: species or system mouse (C57BL/6); settings: mouse, in vivo; remark: listed apart in the source
[23] = test system: RVFV ZH501; parameters: species or system mouse (C57BL/6); settings: mouse, in vivo; remark: listed apart in the source
[24] = test system: RVFV ZH501; parameters: species or system mouse (C57BL/6); settings: mouse, in vivo; remark: listed apart in the source

Compound: Pam2CSK4
- Rel. Fold change RVFV RNA [1]: 0.741 and 1.189
- RVFV RNA after lipopeptide pretreatment [1]: no antiviral effect
- Rel. Fold change Cxcl1 RNA [2]: 1030.97 and 740.202
- Rel. Fold change Tnfa RNA [2]: 157.572 and 100.256
- inflammatory gene transcription (Tnfa, Cxcl1, Cxcl10) ([2]; 10μg/mL for 4h): induced inflammatory gene transcription
- Rel. LACV RNA [3]: 0.9766 and 0.5238 and 0.6648 and 0.9475
- antiviral effect on LACV (qPCR and microscopy) [3]: no antiviral effect
- Rel. VSV-RVFV RNA [4]: 0.4225 and 0.2236 and 0.215
- VSV-RVFV replication [4]: also reduced VSV-RVFV infection, although it was significantly weaker than Pam3CSK4
- VSV RNA replication [5]: no antiviral effect
- RVFV infection in neurons in screen [6]: did not decrease RVFV infection
- Rep 1 rel infection [6]: 1.076 and 1.061
- relative RVFV infection in neurons treated with TLR2 ligands, Rep 1 [6]: 106.055
- relative RVFV infection in neurons treated with TLR2 ligands, Rep 2 [6]: 122.343

Compound: IKK 16
- transcription of NF-κB target genes Tnfa and Cxcl1 after Pam3CSK4 stimulation [2]: blunted transcription

Compound: FSL-1
- relative RVFV infection in neurons treated with TLR2 ligands, Rep 1 [6]: 105.077
- relative RVFV infection in neurons treated with TLR2 ligands, Rep 2 [6]: 120.652

Compound: NC(=O)Nc1sc(-c2ccc(F)cc2)cc1C(N)=O [TPCA-1, 2-[(aminocarbonyl)amino]-5-(4-fluorophenyl)-3-thiophenecarboxamide]
- transcription of NF-κB target genes Tnfa and Cxcl1 after Pam3CSK4 stimulation [2]: blunted transcription

Compound: CC(C)Cn1cnc2c(N)nc3ccccc3c21 [Imiquimod]
- neurotoxicity in screen (relative survival of neurons) [7]: neurotoxic

Compound: CCNCc1nc2c(N)nc3ccccc3c2n1CC(C)(C)O [Gardiquimod]
- neurotoxicity in screen (relative survival of neurons) [7]: neurotoxic

Compound: CO/C1=C\C(C)=C\[C@@H](C)[C@@H](O)[C@@H](C)C/C(C)=C/C=C/[C@H](OC)[C@@H]([C@@H](C)[C@@H](O)[C@H](C)[C@@]2(O)C[C@@H](O)[C@H](C)[C@@H](C(C)C)O2)OC1=O [BafA, bafilomycin A1]
- number, intensity, and area of DiD puncta [8]: decreased
- RVFV infection after pulse at pH 7.6 [9]: blocked infection
- RVFV infection in acid-washed cells (pH 5.2) [9]: did not block infection

Compound: 2'3'-c-di-AMP
- Rep 1 rel infection [6]: 1.031 and 1.083
- Rep 2 rel infection [6]: 1.123 and 1.1792

Compound: CCCCCCCCCCCCCCCC(=O)N[C@@H](CSCC(COC(=O)CCCCCCCCCCCCCCC)OC(=O)CCCCCCCCCCCCCCC)C(=O)N[C@@H](CO)C(=O)N[C@@H](CCCCN)C(=O)N[C@@H](CCCCN)C(=O)N[C@@H](CCCCN)C(=O)N[C@@H](CCCCN)C(=O)O (some centres unmarked) [Pam3CSK4] (Palmitoyl-C(X1)SKKKK-OH)
- Rep 1 rel infection [10]: 1.242 and 0.7928
- Rep 2 rel infection [10]: 1.2338 and 0.6802
- RVFV RNA after lipopeptide pretreatment [1]: decreased RVFV RNA
- RVFV RNA levels in the presence of TPCA-1 or IKK 16 ([1]; 10μg/mL, 24h): significantly decreased
- VSV-RVFV replication [4]: decreased VSV-RVFV replication
- VSV RNA replication [5]: unchanged
- viral RNA bound to cells [11]: did not change
- Mouse cortical neurons Rel. infection ([12]; 0.016 ug/mL): 0.9744 and 0.948 and 1.028
- Mouse cortical neurons Rel. infection ([12]; 0.08 ug/mL): 1.018 and 0.9269 and 0.9842
- Mouse cortical neurons Rel. infection ([12]; 0.4 ug/mL): 1.0033 and 0.9456 and 0.9907
- Mouse cortical neurons Rel. infection ([12]; 2 ug/mL): 1.058 and 0.9085 and 1.0272
- Mouse cortical neurons Rel. infection ([12]; 10 ug/mL): 0.3619 and 0.3566 and 0.3035
- number, intensity, and area of DiD puncta [8]: decreased
- RVFV titers [13]: 3.7 x 10^4 PFU / mL and 3.2 x 10^4 PFU / mL
- decrease of viral replication in the brain [14]: more than 5 logs
- VSV-RVFV replication [15]: decreased VSV-RVFV replication
- internalized RVFV RNA [16]: no difference
- IC50 against VSV [17]: > 10 µg/mL
- infection relative to vehicle in screen [6]: below 60 % of vehicle
- relative RVFV infection in neurons treated with TLR2 ligands, Rep 1 [6]: 26.2716
- relative RVFV infection in neurons treated with TLR2 ligands, Rep 2 [6]: 51.9474
- Neutralization (relative RVFV infection) [18]: 1.27 and 1.194 and 1.159 and 1.08
- RVFV infection, neutralization condition ([18]; 24 hours): failed to neutralize RVFV
- viral RNA bound to cells [19]: did not change
- RVFV infection in DMSO treated cells ([9]; 10μg/mL): inhibited RVFV infection
- RVFV infection in acid-washed, BafA-treated cells ([9]; 10μg/mL, pH 5.2): decreased RVFV infection
- survival of mice treated with Pam3CSK4 alone [20]: all mice treated with Pam3CSK4 alone survived
- internalized RVFV RNA [21]: no difference
- RVFV nucleoprotein immunofluorescence in brain and liver [22]: decreased viral replication in the brain and liver
- hemorrhages caused by RVFV in the liver (H & E) [22]: reduced hemorrhages
- Neurologic disease at 3dpi? No (number of mice) [23]: 2 and 3
- Neurologic disease at 3dpi? Yes (number of mice) [23]: 0
- mice with signs of severe (neurologic) disease [23]: zero out of three and 0/3
- RVFV titers in the liver [24]: significantly decreased
